≈ marks a conversion by molar mass, not a printed value. Where two headings read alike, the source gives them in different places.
Experiments:
S. aureus ATCC 25923 = type: cell-based, Staphylococcus aureus; settings: for ICF / IC50 ± SE / MIC ± SE: resazurin
Description: (§1) Based on the broth microdilution assay results for W2-FL10 and melittin, the S. aureus ATCC 25923 (reference), S. aureus RN4220 (laboratory; MSSA), or methicillin-resistant S. aureus Xen 30 (clinical; MRSA) strains were selected for further antibacterial studies. Resazurin (also referred to as Alamar Blue) is a blue, non-fluorescent dye that can be reduced to resorufin (a pink, fluorescent compound) by metabolically active cells. The dye can thus be used as a quantitative indicator of cell viability ([52]). Therefore, a broth microdilution assay coupled with resazurin [prepared to a stock solution of 0.3 mg/mL in PBS; ([53])] was used to determine the influence of cations (Mg^2+ and Ca^2+), commercial LTA of S. aureus and DOPG on the potency of W2-FL10 against S. aureus ATCC 25923, S. aureus RN4220 and MRSA Xen 30 as described by Wu et al. ([54]).
(§2) For investigating the influence of cations on the antibacterial potency of W2-FL10, a clear 96-well plate was prepared with W2-FL10 and air dried as described in the “Antibacterial activity: broth microdilution assay” section. The S. aureus strains were inoculated into MHB or CA-MHB, grown to mid-log phase (OD600 of 0.5–0.6), and diluted to OD600 of 0.4. A 1:20 dilution of the test strain (final concentration of ∼10^5 CFU/mL) was prepared and 100 µL was dispensed into each well (final concentration of W2-FL10 at 1.56 to 25 µg/mL). Sterile broth (i.e., MHB or CA-MHB) and the OD-adjusted inoculum were included in the assay as a positive control, while sterile broth (i.e., MHB or CA-MHB) was included as a sterility control. The plate was incubated for 24 h at 37°C.
(§3) Similarly, the possible interaction and binding of LTA of S. aureus and DOPG (both at 1 mg/mL in 10% EtOH) with the lipopeptide W2-FL10 was investigated ([54]). Briefly, a clear 96-well plate was prepared with W2-FL10 and air dried as described in the “Antibacterial activity: broth microdilution assay” section. Thereafter, 10 µL of LTA from S. aureus or DOPG was dispensed into the respective wells. The S. aureus strains were grown to mid-log phase in MHB (OD600 of 0.5–0.6) and diluted to OD600 of 0.4. A 1:20 dilution of test strain (final concentration of ∼10^5 CFU/mL) was prepared, 100 µL was dispensed into each well (final concentration of W2-FL10 at 3.13 to 100 µg/mL), and the plate was incubated for 24 h at 37°C. Sterile broth, the OD-adjusted inoculum, and the respective LTA or DOPG were included in the assay as a positive control, while sterile broth and LTA or DOPG were included as a sterility control.
(§4) After incubation of both plates, 10 µL of resazurin (0.3 mg/mL) was added to each well and the plate was incubated at 37°C for 1 h. Fluorometric readings of the experimental plates were conducted using a Tecan Spark 10M Multimode Microplate Reader at 560 nm excitation wavelength and 590 nm emission wavelength. For all resazurin assays, the percentage inhibition was calculated as described by van Rensburg et al. ([53]). All experiments were performed in triplicate, with independent biological duplicates. […] Dose-response curves (nonlinear regression using equation 1) were processed as described by Rautenbach et al. ([17]) (also see description above), and IC50 values were deduced from the best-fit sigmoidal curves (R^2 ≥ 0.98). Statistical analyses were done by comparing W2-FL10 IC50, in the presence of Ca^2+ and Mg^2+, in the presence of DOPG, and in the presence of LTA toward the control condition each of the three S. aureus strains using one-way analysis of variance (ANOVA) with Bonferroni’s post hoc test.

S. aureus RN4220 = type: cell-based, Staphylococcus aureus; settings: for ICF / IC50 ± SE / MIC ± SE: resazurin
Description: as §1, §2, §3, §4

three S. aureus strains = test: Membrane depolarization assay, DiSC3(5), summary; type: cell-based, Staphylococcus aureus; settings: abstract
Protocol: The membrane depolarization capability (ability to disrupt membrane potential) of the W2-FL10 against S. aureus ATCC 25923, S. aureus RN4220, or MRSA Xen 30 was determined using the voltage-sensitive fluorescent probe, DiSC3(5) ([20]). Briefly, black 96-well plates were prepared with W2-FL10 at 12.5 µg/mL and 25 µg/mL, while 4 and 8 µg/mL of melittin were used as a positive depolarization control, and the plates were air dried as described in the “Antibacterial activity: broth microdilution assay” section. The S. aureus strains were inoculated into MHB and grown to the mid-log phase (OD600 of 0.5–0.6). Cells were harvested by centrifugation at 3,000 rpm for 10 min and resuspended in HEPES buffer (5 mM, pH 7.4, containing 20 mM glucose; 100 mM KCl) to OD600 of 0.05. Thereafter, DiSC3(5) (stock concentration of 400 µM in 100% DMSO) was added to the cell suspension to a final concentration of 0.4 µM, and cells were incubated in the dark at room temperature for 40 min. Cell suspensions (100 µL) were then dispensed into the wells of the black 96-well plate. […] Fluorometric readings of the plate were conducted at 1 min intervals over 12 min (readings began 60 s after cells were added to the plates) using a Tecan Spark at 622 nm excitation wavelength and 670 nm emission wavelength. […]

Enterococcus faecium = settings: cited from earlier work
Description: The antimicrobial activity of the serrawettin W2-FI10 analog (i.e., C10H18O2-Leu-Ser-Thr-Phe-Ile), has been extensively investigated.

[1] = Control (MHB), 24 h 37°C, n = 4
[2] = LTA of S. aureus 100 µg/mL, n = 3

## CCCCCCCC1CC(=O)N[C@H](CC(C)C)C(=O)N[C@@H](CO)C(=O)N[C@@H]([C@@H](C)O)C(=O)N[C@H](Cc2ccccc2)C(=O)N[C@@H](CC(C)C)C(=O)O1 (stereo partly shown) [W2-FL10, serrawettin W2-FL10]
S. aureus ATCC 25923; DOPG 100 µg/mL vs control, P < 0.001
  increase in the IC50 in the presence of DOPG: twofold
S. aureus ATCC 25923; Ca2+ and Mg2+ (CA-MHB)
  ICF: 2.2
S. aureus ATCC 25923; Ca2+ and Mg2+ (CA-MHB), n = 4
  IC50 ± SE: 8.4 µg/mL (≈ 11.5 µM)
  MIC ± SE: 12.5 ± 0.0 µg/mL (≈ 17.1 µM)
S. aureus ATCC 25923; Control (MHB)
  ICF: 4.3
S. aureus ATCC 25923; [1]
  MIC ± SE: 21.9 ± 3.1 µg/mL (≈ 29.9 µM)
S. aureus ATCC 25923; Control (MHB), n = 4
  IC50 ± SE: 10.6 µg/mL (≈ 14.5 µM)
S. aureus ATCC 25923; DOPG 100 µg/mL
  ICF: 6.3
S. aureus ATCC 25923; DOPG 100 µg/mL, n = 4
  IC50 ± SE: 22.5 µg/mL (≈ 30.7 µM)
  MIC ± SE: 56.3 ± 15.7 µg/mL (≈ 76.9 µM)
S. aureus ATCC 25923; LTA 100 µg/mL
  ICF: 6.3
S. aureus ATCC 25923; LTA 100 µg/mL, n = 4
  IC50 ± SE: 16.6 µg/mL (≈ 22.7 µM)
S. aureus ATCC 25923; [2]
  MIC ± SE: 41.7 ± 8.3 µg/mL (≈ 57 µM)
S. aureus RN4220; LTA 100 µg/mL vs control, P < 0.001
  increase in the IC50 in the presence of LTA: twofold
S. aureus RN4220; Ca2+ and Mg2+ (CA-MHB)
  ICF: 6.3
S. aureus RN4220; Ca2+ and Mg2+ (CA-MHB), n = 3
  IC50 ± SE: 10 µg/mL (≈ 13.7 µM)
  MIC ± SE: 25.0 ± 0.0 µg/mL (≈ 34.2 µM)
S. aureus RN4220; Control (MHB)
  ICF: 3.6
S. aureus RN4220; [1]
  MIC ± SE: 25.0 ± 0.0 µg/mL (≈ 34.2 µM)
S. aureus RN4220; Control (MHB), n = 4
  IC50 ± SE: 13.2 µg/mL (≈ 18 µM)
S. aureus RN4220; DOPG 100 µg/mL
  ICF: 2.2
S. aureus RN4220; DOPG 100 µg/mL, n = 3
  IC50 ± SE: 44.6 µg/mL (≈ 60.9 µM)
  MIC ± SE: 66.7 ± 16.7 µg/mL (≈ 91.1 µM)
S. aureus RN4220; LTA 100 µg/mL
  ICF: 3.5
S. aureus RN4220; LTA 100 µg/mL, n = 3
  IC50 ± SE: 26.8 µg/mL (≈ 36.6 µM)
S. aureus RN4220; [2]
  MIC ± SE: 50.0 ± 0.0 µg/mL (≈ 68.3 µM)
Three S. aureus strains
  time within which membrane potential was dissipated: ≤ 12 min
Enterococcus faecium
  minimum inhibitory concentration (MIC): 15.6 µg/mL (≈ 21.3 µM)

From PMC11218446, “Antibacterial efficacy and membrane mechanism of action of the Serratia-derived non-ionic lipopeptide, serrawettin W2-FL10” (Microbiology Spectrum, 2024)
